Molecules are shown by their SMILES.

The Ki is a measure of affinity in units of concentration, obtained from inhibition or displacement. A higher Ki goes with a looser hold on the target.

For the experiment, the target named is Synaptic vesicular amine transporter (Rattus norvegicus, UniProt Q01827). As to the kind of experiment: Displacement of [3H]dihydrotetrabenazine from vesicular monoamine transporter-2 in rat brain synaptosome. Type of experiment: tissue-based. On the technique in general: In a radioligand displacement assay an active substance lowers the binding of a labelled ligand.
Sequence of Synaptic vesicular amine transporter (Q01827 whole entry): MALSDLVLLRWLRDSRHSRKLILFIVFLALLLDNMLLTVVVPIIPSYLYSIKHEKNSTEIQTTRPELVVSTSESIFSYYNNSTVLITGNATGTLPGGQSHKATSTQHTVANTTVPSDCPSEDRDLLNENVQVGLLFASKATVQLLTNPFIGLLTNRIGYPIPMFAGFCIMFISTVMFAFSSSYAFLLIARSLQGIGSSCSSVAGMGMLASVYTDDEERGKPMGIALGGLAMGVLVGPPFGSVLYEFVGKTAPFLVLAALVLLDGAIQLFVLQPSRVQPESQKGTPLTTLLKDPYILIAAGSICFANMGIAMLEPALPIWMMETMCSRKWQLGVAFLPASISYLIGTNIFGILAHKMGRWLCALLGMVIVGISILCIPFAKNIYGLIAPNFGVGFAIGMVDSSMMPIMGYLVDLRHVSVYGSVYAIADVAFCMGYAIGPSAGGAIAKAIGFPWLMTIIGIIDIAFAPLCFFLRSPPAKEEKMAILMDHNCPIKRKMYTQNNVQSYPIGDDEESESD
The compound `c1ccc(CC[C@H]2CCC[C@@H](c3ccccc3)N2)cc1` gave a Ki of 28.4 µM. As for `c1ccc(CCC[C@@H]2CCC[C@H](CCCc3ccccc3)N2)cc1`, the Ki was 4.56 µM.

Compound `c1ccc(CCC[C@H]2CCC[C@@H](Cc3ccccc3)N2)cc1` returned a Ki of 1.13 µM.

Turning to `CN1[C@@H](c2ccccc2)CCC[C@H]1c1ccccc1`, the Ki is greater than 100 µM. As for `CN1[C@@H](CCCc2ccccc2)CCC[C@H]1Cc1ccccc1`, the figure is 1.62 µM. In the case of `c1ccc(C[C@H]2CCC[C@@H](Cc3ccccc3)N2)cc1`, the affinity corresponds to a Ki of 7.68 µM. The compound `CN1[C@@H](Cc2ccccc2)CCC[C@H]1c1ccccc1` registered a Ki of 13.6 µM.

The compound `CN1[C@H](CCCc2ccccc2)CCC[C@@H]1CCCc1ccccc1` yielded a Ki of 1 µM. As to `c1ccc(CCC[C@H]2CCC[C@@H](c3ccccc3)N2)cc1`, the Ki came to 28.6 µM.

In turn, `CN1[C@@H](CCc2ccccc2)CCC[C@H]1Cc1ccccc1` yielded a Ki of 2.77 µM.

As for `CN1[C@@H](CCCc2ccccc2)CCC[C@H]1CCc1ccccc1`, the affinity, expressed as Ki, was 0.88 µM. The same measure for `CN1[C@@H](Cc2ccccc2)CCC[C@H]1Cc1ccccc1`: 10.5 µM; for `c1ccc(C[C@H]2CCC[C@@H](c3ccccc3)N2)cc1`: 24.1 µM; for `c1ccc(CCC[C@H]2CCC[C@@H](CCc3ccccc3)N2)cc1`: 4.6 µM.

With `CN1[C@@H](CCCc2ccccc2)CCC[C@H]1c1ccccc1`, the Ki was 62.5 µM. The same measure for `c1ccc(CC[C@H]2CCC[C@@H](Cc3ccccc3)N2)cc1`: 12.2 µM.

The record behind these values is ChEMBL document CHEMBL1152171 (Bioorg Med Chem Lett, 2008).
